PubChem BioAssay (NCI)
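96-well plates; 48 h exposure; 5 concentrations. Endpoints by linear interpolation between flanking doses. Not reached: highest tested concentration assigned. TGI: concentration producing complete growth inhibition.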

Columns and labels:
Experiment in all cases: inhibition of tumour cell growth, NCI panel, 48 h
[1] = system: DMS 273 small cell lung
[2] = system: DMS 114 small cell lung
[3] = system: NCI-H522 lung
[4] = system: NCI-H460 lung
[5] = system: HOP-18 NSCLC
[6] = system: SNB-78 CNS
[7] = system: DLD-1 colon
[8] = system: NCI-H23 lung
[9] = system: OVCAR-8 ovarian
[10] = system: OVCAR-3 ovarian
[11] = system: HCT-15 colon
[12] = system: ACHN renal
[13] = system: UO-31 renal
[14] = system: KM20L2 colon
[15] = system: SF-295 CNS
[16] = system: LOX IMVI melanoma
[17] = system: IGROV1 ovarian
[18] = system: SW-620 colon
[19] = system: TK-10 renal
[20] = system: RPMI-8226 leukemia
[21] = system: COLO 205 colon
[22] = system: NCI-H226 lung
[23] = system: SR leukemia
[24] = system: HT29 colon
[25] = system: SK-OV-3 ovarian
[26] = system: SK-MEL-5 melanoma
[27] = system: HL-60(TB) leukemia
[28] = system: CCRF-CEM leukemia
[29] = system: UACC-257 melanoma
[30] = system: SK-MEL-28 melanoma
[31] = system: HOP-62 NSCLC
[32] = system: HCT-116 colon
[33] = system: SK-MEL-2 melanoma
[34] = system: OVCAR-5 ovarian
[35] = system: KM12 colon
[36] = system: M14 melanoma
[37] = system: MOLT-4 leukemia
[38] = system: CAKI-1 renal
[39] = system: RXF-631 renal
[40] = system: 786-0 renal
[41] = system: K-562 leukemia
[42] = system: SF-268 CNS
[43] = system: SN12C renal
[44] = system: MALME-3M melanoma
[45] = system: RXF 393 renal
[46] = system: SF-539 CNS
[47] = system: HOP-92 NSCLC
[48] = system: M19-MEL melanoma
[49] = system: U251 CNS
[50] = system: XF 498 CNS
[51] = system: SNB-75 CNS
[52] = system: A549 NSCLC
[53] = system: A498 renal
[54] = system: UACC-62 melanoma
[55] = system: OVCAR-4 ovarian
[56] = system: SNB-19 CNS
[57] = system: LXFL 529 NSCLC
[58] = system: EKVX NSCLC
[59] = system: HCC-2998 colon

CN1CCCS/C1=C1/SC(=S)N(c2ccccc2)C1=O
TGI [1]: > 100 µM
TGI [2]: > 100 µM
TGI [3]: > 100 µM
TGI [4]: > 100 µM
TGI [5]: > 100 µM
TGI [6]: > 100 µM
TGI [7]: > 100 µM
TGI [8]: > 100 µM
TGI [9]: > 100 µM
TGI [10]: > 100 µM
TGI [11]: > 100 µM
TGI [12]: > 100 µM
TGI [13]: > 100 µM
TGI [14]: > 100 µM
TGI [15]: > 100 µM
TGI [16]: > 100 µM
TGI [17]: > 100 µM
TGI [18]: > 100 µM
TGI [19]: > 100 µM
TGI [20]: > 100 µM
TGI [21]: > 100 µM
TGI [22]: > 100 µM
TGI [23]: > 100 µM
TGI [24]: > 100 µM
TGI [25]: > 100 µM
TGI [26]: > 100 µM
TGI [27]: > 100 µM
TGI [28]: > 100 µM
TGI [29]: > 100 µM
TGI [30]: > 100 µM
TGI [31]: > 100 µM
TGI [32]: > 100 µM
TGI [33]: > 100 µM
TGI [34]: > 100 µM
TGI [35]: > 100 µM
TGI [36]: > 100 µM
TGI [37]: > 100 µM
TGI [38]: > 100 µM
TGI [39]: > 100 µM
TGI [40]: > 100 µM
TGI [41]: > 100 µM
TGI [42]: > 100 µM
TGI [43]: > 100 µM
TGI [44]: > 100 µM
TGI [45]: > 100 µM
TGI [46]: > 100 µM
TGI [47]: > 100 µM
TGI [48]: > 100 µM
TGI [49]: > 100 µM
TGI [50]: > 100 µM
TGI [51]: > 100 µM
TGI [52]: > 100 µM
TGI [53]: > 100 µM
TGI [54]: > 100 µM
TGI [55]: > 100 µM
TGI [56]: > 100 µM
TGI [57]: > 100 µM
TGI [58]: > 100 µM

CN(C)CC1(Cc2ccccc2)CC/C(=C\c2ccccc2)C1=O (stereo not given)
TGI [1]: > 100 µM
TGI [2]: 80.1 µM
TGI [3]: 30.1 µM
TGI [4]: 68.3 µM
TGI [5]: > 100 µM
TGI [6]: > 100 µM
TGI [7]: > 100 µM
TGI [8]: > 100 µM
TGI [9]: > 100 µM
TGI [10]: > 100 µM
TGI [11]: 42.1 µM
TGI [12]: > 100 µM
TGI [13]: > 100 µM
TGI [14]: 35 µM
TGI [15]: > 100 µM
TGI [16]: 74.9 µM
TGI [17]: > 100 µM
TGI [18]: 60.3 µM
TGI [19]: > 100 µM
TGI [20]: 55.7 µM
TGI [21]: 89.6 µM
TGI [22]: > 100 µM
TGI [23]: 60.4 µM
TGI [24]: 52.6 µM
TGI [26]: 64.3 µM
TGI [59]: 40.7 µM
TGI [27]: 48.7 µM
TGI [28]: 59.9 µM
TGI [29]: > 100 µM
TGI [30]: > 100 µM
TGI [31]: > 100 µM
TGI [32]: > 100 µM
TGI [33]: > 100 µM
TGI [34]: > 100 µM
TGI [35]: > 100 µM
TGI [36]: > 100 µM
TGI [37]: 67.5 µM
TGI [38]: > 100 µM
TGI [39]: 83.7 µM
TGI [40]: > 100 µM
TGI [41]: > 100 µM
TGI [42]: > 100 µM
TGI [43]: > 100 µM
TGI [44]: > 100 µM
TGI [45]: 92.8 µM
TGI [46]: 60.3 µM
TGI [47]: > 100 µM
TGI [48]: 64.6 µM
TGI [49]: > 100 µM
TGI [50]: > 100 µM
TGI [51]: > 100 µM
TGI [52]: > 100 µM
TGI [53]: > 100 µM
TGI [54]: > 100 µM
TGI [55]: > 100 µM
TGI [56]: 63.3 µM
TGI [57]: > 100 µM
